Source: US10787447B2, “Pharmaceutical compounds” (Heptares Therapeutics Limited, priority 2018, dated 2020)
Where two headings read alike, the source gives them in different places.

Tests used:
Assay type in all cases: cell-based
[1] = biological target: T1, human muscarinic M3 receptor (Homo sapiens, UniProt P20309); assay: Alphascreen Surefire phospho-ERK1/2 functional assay, M3; conditions: for Emax: CHO, read-out: % Emax cf. ACh, M3, CHO cells stably expressing human M3; for Emax / % Emax cf. ACh, M3: Emax relative to ACh; for EC50: phospho-ERK1/2
T1 construct: expressed in transfected cells
T1 sequence (P20309 whole entry): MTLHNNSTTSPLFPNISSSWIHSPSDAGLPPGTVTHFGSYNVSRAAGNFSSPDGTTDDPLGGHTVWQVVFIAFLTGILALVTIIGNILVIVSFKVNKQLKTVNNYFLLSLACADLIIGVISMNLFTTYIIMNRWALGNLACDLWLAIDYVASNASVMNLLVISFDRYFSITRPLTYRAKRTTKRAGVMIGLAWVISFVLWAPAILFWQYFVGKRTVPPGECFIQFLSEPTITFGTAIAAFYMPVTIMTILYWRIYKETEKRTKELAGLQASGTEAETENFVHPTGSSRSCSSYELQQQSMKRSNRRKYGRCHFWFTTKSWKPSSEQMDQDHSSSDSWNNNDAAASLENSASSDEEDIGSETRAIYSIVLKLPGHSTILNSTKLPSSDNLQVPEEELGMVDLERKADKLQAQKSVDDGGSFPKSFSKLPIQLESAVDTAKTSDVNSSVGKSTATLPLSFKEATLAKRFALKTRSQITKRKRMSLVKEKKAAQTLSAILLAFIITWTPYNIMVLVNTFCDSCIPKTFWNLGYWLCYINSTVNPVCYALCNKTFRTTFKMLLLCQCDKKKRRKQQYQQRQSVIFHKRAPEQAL
Protocol: (§1) ERK1/2 phosphorylation is a downstream consequence of both Gq/11 and Gi/o protein coupled receptor activation, making it highly suitable for the assessment of M1, M3 (Gq/11 coupled) and M2, M4 receptors (Gi/o coupled), rather than using different assay formats for different receptor subtypes. CHO cells stably expressing the human muscarinic M1, M2, M3 or M4 receptor were plated (25K/well) onto 96-well tissue culture plates in MEM-alpha+10% dialysed FBS. Once adhered, cells were serum-starved overnight. Agonist stimulation was performed by the addition of 5 μL agonist to the cells for 5 min (37° C.). Media was removed and 50 μL of lysis buffer added. After 15 min, a 4 μL sample was transferred to 384-well plate and 7 μL of detection mixture added.
(§2) Isomer assignment (Isomer 1, Isomer 2, etc.) is based on the retention time of the compound using the separation technique that was performed in the final purification step. By implication, this could be reversed phase HPLC, chiral HPLC or chiral SFC retention time, and this will vary from compound to compound.

[2] = biological target: T2, human muscarinic M2 receptor (Homo sapiens, UniProt P08172); assay: Alphascreen Surefire phospho-ERK1/2 functional assay, M2; conditions: for Emax: CHO, read-out: % Emax cf. ACh, M2, CHO cells stably expressing human M2; for Emax / % Emax cf. ACh, M2: Emax relative to ACh; for EC50: phospho-ERK1/2
T2 sequence (P08172 1-466): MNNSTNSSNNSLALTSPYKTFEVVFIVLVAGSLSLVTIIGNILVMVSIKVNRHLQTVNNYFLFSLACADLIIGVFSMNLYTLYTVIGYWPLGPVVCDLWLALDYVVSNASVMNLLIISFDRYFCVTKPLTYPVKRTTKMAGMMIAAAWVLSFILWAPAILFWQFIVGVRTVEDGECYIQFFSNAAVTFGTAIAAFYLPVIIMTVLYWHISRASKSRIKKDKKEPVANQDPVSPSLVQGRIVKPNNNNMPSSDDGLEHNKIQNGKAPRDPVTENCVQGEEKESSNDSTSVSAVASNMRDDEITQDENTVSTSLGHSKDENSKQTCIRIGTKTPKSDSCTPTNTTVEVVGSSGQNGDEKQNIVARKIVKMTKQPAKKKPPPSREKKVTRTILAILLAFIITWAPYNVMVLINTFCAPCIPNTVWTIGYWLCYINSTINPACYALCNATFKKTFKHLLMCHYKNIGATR
Protocol: as §1, §2

[3] = biological target: T3, human muscarinic M1 receptor (Homo sapiens, UniProt P11229); assay: Alphascreen Surefire phospho-ERK1/2 functional assay, M1; conditions: for EC50: phospho-ERK1/2
T3 sequence (P11229 1-460): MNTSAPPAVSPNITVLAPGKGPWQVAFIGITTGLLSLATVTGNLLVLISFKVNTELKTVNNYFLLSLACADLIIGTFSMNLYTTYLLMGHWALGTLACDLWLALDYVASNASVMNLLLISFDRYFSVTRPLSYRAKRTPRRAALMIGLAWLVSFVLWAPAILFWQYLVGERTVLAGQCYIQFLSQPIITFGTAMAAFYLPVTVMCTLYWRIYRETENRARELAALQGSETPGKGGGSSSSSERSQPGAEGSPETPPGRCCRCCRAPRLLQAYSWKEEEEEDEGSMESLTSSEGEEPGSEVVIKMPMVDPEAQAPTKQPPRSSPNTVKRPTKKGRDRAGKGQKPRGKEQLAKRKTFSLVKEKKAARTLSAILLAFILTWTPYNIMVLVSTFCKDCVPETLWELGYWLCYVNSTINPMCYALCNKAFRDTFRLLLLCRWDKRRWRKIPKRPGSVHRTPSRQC
How it was run: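 Stably transfected CHO cells, serum-starved overnight, then exposed to agonist for 5 min at 37 °C. Cells lysed and phospho-ERK1/2 measured by AlphaScreen SureFire.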

[4] = biological target: T4, human muscarinic M4 receptor (Homo sapiens, UniProt P08173); assay: Alphascreen Surefire phospho-ERK1/2 functional assay, M4; conditions: for EC50: phospho-ERK1/2
T4 sequence (P08173 1-479): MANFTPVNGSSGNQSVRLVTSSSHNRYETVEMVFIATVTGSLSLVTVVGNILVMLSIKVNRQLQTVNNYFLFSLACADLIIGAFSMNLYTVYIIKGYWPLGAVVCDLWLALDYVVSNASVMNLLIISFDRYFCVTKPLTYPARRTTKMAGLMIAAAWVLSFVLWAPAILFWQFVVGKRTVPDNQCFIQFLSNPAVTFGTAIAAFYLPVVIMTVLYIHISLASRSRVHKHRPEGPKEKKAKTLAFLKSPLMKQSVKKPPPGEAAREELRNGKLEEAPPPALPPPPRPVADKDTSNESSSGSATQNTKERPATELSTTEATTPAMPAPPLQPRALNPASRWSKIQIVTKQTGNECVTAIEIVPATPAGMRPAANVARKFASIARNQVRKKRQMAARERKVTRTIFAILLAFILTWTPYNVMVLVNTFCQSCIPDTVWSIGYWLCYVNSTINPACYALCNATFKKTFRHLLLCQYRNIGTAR
How it was run: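 CHO cells stably expressing human M1, M2, M3 or M4 receptor, serum-starved overnight, then stimulated with agonist for 5 min at 37 °C. Cells lysed for 15 min and phospho-ERK1/2 detected in the lysate by AlphaScreen SureFire.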

[5] = pEC50 M3, CHO cells stably expressing human M3
[6] = pEC50 M2, CHO cells stably expressing human M2
[7] = pEC50 M1, CHO cells stably expressing human M1
[8] = CHO cells stably expressing human M4, Emax relative to ACh
[9] = pEC50 M4, CHO cells stably expressing human M4
[10] = CHO cells stably expressing human M1, Emax relative to ACh

## CCOC(=O)N1C2COCC1CC(N1CCC3(CC1)CNC(=O)C3)C2 (single isomer, unassigned) [Example 5-2 Isomer 2, Ethyl 7-(3-oxo-2,8-diazaspiro[4.5]dec-8-yl)-3-oxa-9-azabicyclo[3.3.1]nonane-9-carboxylate]
[1]
  Emax: 5%
[1]; [5]
  EC50: > 20000 nM
[2]
  Emax: 8%
[2]; [6]
  EC50: > 20000 nM
[3]; CHO cells stably expressing human M1, Emax relative to ACh, listed as 5-2 Isomer 2
  % Emax cf. ACh, M1: 61%
[3]; [7]
  EC50: 43.7 nM
[4]; [8]
  % Emax cf. ACh, M4: 18%
[4]; [9]
  EC50: > 20000 nM

## CCOC(=O)N1C2COCC1CC(N1CCC3(CC1)CNC(=O)O3)C2 (single isomer, unassigned) [Example 5-3 Isomer 2, Ethyl 7-(2-oxo-1-oxa-3,8-diazaspiro[4.5]dec-8-yl)-3-oxa-9-azabicyclo[3.3.1]nonane-9-carboxylate]
[1]; CHO cells stably expressing human M3, read-out: pEC50 M3 (converted)
  EC50: > 20000 nM
[1]
  Emax: 5%
[2]; CHO cells stably expressing human M2, read-out: pEC50 M2 (converted)
  EC50: > 20000 nM
[2]
  Emax: 4%
[3]; [10]
  % Emax cf. ACh, M1: 73%
[3]; CHO cells stably expressing human M1, read-out: pEC50 M1 (converted)
  EC50: 126 nM
[4]; [8]
  % Emax cf. ACh, M4: 17%
[4]; CHO cells stably expressing human M4, read-out: pEC50 M4 (converted)
  EC50: > 20000 nM

## CCOC(=O)N1C2COCC1CC(N1CCC3(CC1)OC(=O)NC3CC)C2 (single isomer, unassigned) [Example 5-4 Isomer 1a, Ethyl 7-(4-ethyl-2-oxo-1-oxa-3,8-diazaspiro[4.5]dec-8-yl)-3-oxa-9-azabicyclo[3.3.1]nonane-9-carboxylate]
[1]
  Emax: 2%
[1]; [5]
  EC50: > 20000 nM
[2]; CHO cells stably expressing human M2, listed as 5-4 Isomer 1a
  % Emax cf. ACh, M2: 3%
[2]; [6]
  EC50: > 20000 nM
[3]; CHO cells stably expressing human M1, Emax relative to ACh, listed as 5-4 Isomer 1a
  % Emax cf. ACh, M1: 76%
[3]; [7]
  EC50: 1480 nM
[4]; CHO cells stably expressing human M4, Emax relative to ACh, listed as 5-4 Isomer 1a
  % Emax cf. ACh, M4: 81%
[4]; [9]
  EC50: 145 nM

## CCOC(=O)N1C2COCC1CC(N1CCC3(CC1)OC(=O)NC3CC)C2 (single isomer, unassigned) [Example 5-4 Isomer 2b, Ethyl 7-(4-ethyl-2-oxo-1-oxa-3,8-diazaspiro[4.5]dec-8-yl)-3-oxa-9-azabicyclo[3.3.1]nonane-9-carboxylate]
[1]; CHO cells stably expressing human M3
  % Emax cf. ACh, M3: 4%
[2]; CHO cells stably expressing human M2, listed as 5-4 Isomer 2b
  % Emax cf. ACh, M2: 1%
[3]; CHO cells stably expressing human M1, Emax relative to ACh, listed as 5-4 Isomer 2b
  % Emax cf. ACh, M1: 25%
[3]; [7]
  EC50: 74.1 nM
[4]; CHO cells stably expressing human M4, Emax relative to ACh, listed as 5-4 Isomer 2b
  % Emax cf. ACh, M4: 20%
[4]; [9]
  EC50: > 20000 nM

## CCOC(=O)N1C2COCC1CC(N1CCC3(CC1)C(=O)Nc1ccccc13)C2 (single isomer, unassigned) [Example 5-5 Isomer 1, Ethyl 7-(2-oxo-1,2-dihydro-1′H-spiro[indole-3,4′-piperidin]-1′-yl)-3-oxa-9-azabicyclo[3.3.1]nonane-9-carboxylate]
[1]
  Emax: 4%
[1]; [5]
  EC50: > 20000 nM
[2]; CHO cells stably expressing human M2, listed as 5-5 Isomer 1
  % Emax cf. ACh, M2: 24%
[2]; [6]
  EC50: 123 nM
[3]; CHO cells stably expressing human M1, Emax relative to ACh, listed as 5-5 Isomer 1
  % Emax cf. ACh, M1: 75%
[3]; [7]
  EC50: 288 nM
[4]; CHO, read-out: % Emax cf. ACh, M4, CHO cells stably expressing human M4, Emax relative to ACh
  Emax: 99%
[4]; [9]
  EC50: 21.4 nM

## CCOC(=O)N1C2COCC1CC(N1CCC(N(CC(C)C)C(C)=O)CC1)C2 (single isomer, unassigned) [Example 6-1 Isomer 1, Ethyl 7-{4-[acetyl(2-methylpropyl)amino]piperidin-1-yl}-3-oxa-9-azabicyclo[3.3.1]nonane-9-carboxylate]
[1]; CHO cells stably expressing human M3, listed as 6-1 Isomer 1
  % Emax cf. ACh, M3: 7%
[1]; [5]
  EC50: > 20000 nM
[2]; CHO cells stably expressing human M2, listed as 6-1 Isomer 1
  % Emax cf. ACh, M2: 26%
[2]; [6]
  EC50: > 20000 nM
[3]; CHO, read-out: % Emax cf. ACh, M1, CHO cells stably expressing human M1, Emax relative to ACh
  Emax: 93%
[3]; [7]
  EC50: 178 nM
[4]; CHO cells stably expressing human M4, Emax relative to ACh, listed as 6-1 Isomer 1
  % Emax cf. ACh, M4: 77%
[4]; [9]
  EC50: 151 nM

## CCOC(=O)N1C2COCC1CC(N1CCC(N(CC(C)C)C(C)=O)CC1)C2 (single isomer, unassigned) [Example 6-1 Isomer 2, Ethyl 7-{4-[acetyl(2-methylpropyl)amino]piperidin-1-yl}-3-oxa-9-azabicyclo[3.3.1]nonane-9-carboxylate]
[1]; CHO cells stably expressing human M3, listed as 6-1 Isomer 2
  % Emax cf. ACh, M3: 62%
[2]; CHO cells stably expressing human M2, listed as 6-1 Isomer 2
  % Emax cf. ACh, M2: 90%
[2]; [6]
  EC50: 324 nM
[3]; [10]
  % Emax cf. ACh, M1: 102%
[3]; [7]
  EC50: 61.7 nM
[4]; CHO cells stably expressing human M4, Emax relative to ACh, listed as 6-1 Isomer 2
  % Emax cf. ACh, M4: 111%
[4]; [9]
  EC50: 17.4 nM

## CCOC(=O)N1C2COCC1CC(N1CCC(N(CC3(C)CC3)C(C)=O)CC1)C2 (single isomer, unassigned) [Example 6-3 Isomer 1, Ethyl 7-(4-{acetyl[(1-methylcyclopropyl)methyl]amino}piperidin-1-yl)-3-oxa-9-azabicyclo[3.3.1]nonane-9-carboxylate]
[1]; CHO cells stably expressing human M3, listed as 6-3 Isomer 1
  % Emax cf. ACh, M3: 390%
[1]; [5]
  EC50: > 20000 nM
[2]; CHO cells stably expressing human M2, listed as 6-3 Isomer 1
  % Emax cf. ACh, M2: 36%
[2]; [6]
  EC50: 355 nM
[3]; CHO cells stably expressing human M1, Emax relative to ACh, listed as 6-3 Isomer 1
  % Emax cf. ACh, M1: 124%
[3]; [7]
  EC50: 120 nM
[4]; CHO cells stably expressing human M4, Emax relative to ACh, listed as 6-3 Isomer 1
  % Emax cf. ACh, M4: 93%
[4]; [9]
  EC50: 60.3 nM

## CCOC(=O)N1C2COCC1CC(N1CCC(N(CC3(C)CC3)C(C)=O)CC1)C2 (single isomer, unassigned) [Example 6-3 Isomer 2]
[1]; CHO cells stably expressing human M3, listed as 6-3 Isomer 2
  % Emax cf. ACh, M3: 9%
[2]; CHO cells stably expressing human M2, listed as 6-3 Isomer 2
  % Emax cf. ACh, M2: 11%
[2]; [6]
  EC50: > 20000 nM
[3]; CHO cells stably expressing human M1, Emax relative to ACh, listed as 6-3 Isomer 2
  % Emax cf. ACh, M1: 90%
[3]; [7]
  EC50: 195 nM
[4]; CHO cells stably expressing human M4, Emax relative to ACh, listed as 6-3 Isomer 2
  % Emax cf. ACh, M4: 44%
[4]; [9]
  EC50: 389 nM
